Experimental data taken from patent US12203124B2, “Methods for improved rapid antimicrobial susceptibility testing” (priority 2016, dated 2025).
Converted amounts (≈) assume the structure as drawn.

tested on: E. coli strains; assay: CLSI overnight reference method, broth microdilution MIC; type: cell-based; details: E. coli strain BEI 4.097; unit assumed

| Molecule | MIC (CLSI Ref) [µg/mL] |
| --- | --- |
| CN(C)[C@@H]1C(=O)C(C(N)=O)=C(O)[C@@]2(O)C(=O)C3=C(O)c4c(O)cccc4[C@@](C)(O)[C@H]3C[C@@H]12 [TET, Tetracycline] | 32 (≈ 72 µM) |
| NC[C@H]1O[C@H](O[C@H]2[C@H](O)[C@@H](O[C@H]3O[C@H](CO)[C@@H](O)[C@H](N)[C@H]3O)[C@H](N)C[C@@H]2N)[C@H](N)C[C@@H]1O [TOB, Tobramycin] | 1 (≈ 2.14 µM) |
| Ampicillin/sulbactam [SAM] | 8 |
| Colistin [CST] | 0.12 |
| Gentamycin | 0.5 |
| Imipenem/Cilastatin [IPM] | < 0.12 |
| Penicillin | 16 |

same assay, conditions: E. coli strain CDC Carba36; unit assumed

| Molecule | MIC (CLSI Ref) [µg/mL] |
| --- | --- |
| CN(C)[C@@H]1C(=O)C(C(N)=O)=C(O)[C@@]2(O)C(=O)C3=C(O)c4c(O)cccc4[C@@](C)(O)[C@H]3C[C@@H]12 [TET, Tetracycline] | 8 (≈ 18 µM) |
| NC[C@H]1O[C@H](O[C@H]2[C@H](O)[C@@H](O[C@H]3O[C@H](CO)[C@@H](O)[C@H](N)[C@H]3O)[C@H](N)C[C@@H]2N)[C@H](N)C[C@@H]1O [TOB, Tobramycin] | 1 (≈ 2.14 µM) |
| Ampicillin/sulbactam [SAM] | > 32 |
| Colistin [CST] | 0.25 |
| Gentamycin | 2 |
| Imipenem/Cilastatin [IPM] | < 0.12 |
| Penicillin | > 16 |

same assay, conditions: E. coli strain Clinical Sample 1; unit assumed

| Molecule | MIC (CLSI Ref) [µg/mL] |
| --- | --- |
| CN(C)[C@@H]1C(=O)C(C(N)=O)=C(O)[C@@]2(O)C(=O)C3=C(O)c4c(O)cccc4[C@@](C)(O)[C@H]3C[C@@H]12 [TET, Tetracycline] | 4 (≈ 9 µM) |
| NC[C@H]1O[C@H](O[C@H]2[C@H](O)[C@@H](O[C@H]3O[C@H](CO)[C@@H](O)[C@H](N)[C@H]3O)[C@H](N)C[C@@H]2N)[C@H](N)C[C@@H]1O [TOB, Tobramycin] | 2 (≈ 4.28 µM) |
| Ampicillin/sulbactam [SAM] | 4 |
| Colistin [CST] | 0.12 |
| Gentamycin | 0.5 |
| Imipenem/Cilastatin [IPM] | < 0.12 |
| Penicillin | > 16 |

same assay, conditions: E. coli strain Clinical Sample 2

| Molecule | Interpretation letter |
| --- | --- |
| CN(C)[C@@H]1C(=O)C(C(N)=O)=C(O)[C@@]2(O)C(=O)C3=C(O)c4c(O)cccc4[C@@](C)(O)[C@H]3C[C@@H]12 [TET, Tetracycline] | R |
| Ampicillin/sulbactam [SAM] | I |

same assay, conditions: E. coli strain Clinical Sample 2; unit assumed

| Molecule | MIC (CLSI Ref) [µg/mL] |
| --- | --- |
| CN(C)[C@@H]1C(=O)C(C(N)=O)=C(O)[C@@]2(O)C(=O)C3=C(O)c4c(O)cccc4[C@@](C)(O)[C@H]3C[C@@H]12 [TET, Tetracycline] | > 32 |
| NC[C@H]1O[C@H](O[C@H]2[C@H](O)[C@@H](O[C@H]3O[C@H](CO)[C@@H](O)[C@H](N)[C@H]3O)[C@H](N)C[C@@H]2N)[C@H](N)C[C@@H]1O [TOB, Tobramycin] | 1 (≈ 2.14 µM) |
| Ampicillin/sulbactam [SAM] | 16 |
| Colistin [CST] | 0.12 |
| Gentamycin | 4 |
| Imipenem/Cilastatin [IPM] | < 0.12 |
| Penicillin | > 16 |

same assay, conditions: E. coli strain Clinical Sample 4; unit assumed

| Molecule | MIC (CLSI Ref) [µg/mL] |
| --- | --- |
| CN(C)[C@@H]1C(=O)C(C(N)=O)=C(O)[C@@]2(O)C(=O)C3=C(O)c4c(O)cccc4[C@@](C)(O)[C@H]3C[C@@H]12 [TET, Tetracycline] | 4 (≈ 9 µM) |
| NC[C@H]1O[C@H](O[C@H]2[C@H](O)[C@@H](O[C@H]3O[C@H](CO)[C@@H](O)[C@H](N)[C@H]3O)[C@H](N)C[C@@H]2N)[C@H](N)C[C@@H]1O [TOB, Tobramycin] | 1 (≈ 2.14 µM) |
| Ampicillin/sulbactam [SAM] | 16 |
| Colistin [CST] | 0.25 |
| Gentamycin | 0.5 |
| Imipenem/Cilastatin [IPM] | 0.25 |
| Penicillin | > 16 |

same assay, conditions: E. coli strain Clinical Sample 5; unit assumed

| Molecule | MIC (CLSI Ref) [µg/mL] |
| --- | --- |
| CN(C)[C@@H]1C(=O)C(C(N)=O)=C(O)[C@@]2(O)C(=O)C3=C(O)c4c(O)cccc4[C@@](C)(O)[C@H]3C[C@@H]12 [TET, Tetracycline] | > 32 |
| NC[C@H]1O[C@H](O[C@H]2[C@H](O)[C@@H](O[C@H]3O[C@H](CO)[C@@H](O)[C@H](N)[C@H]3O)[C@H](N)C[C@@H]2N)[C@H](N)C[C@@H]1O [TOB, Tobramycin] | 1 (≈ 2.14 µM) |
| Ampicillin/sulbactam [SAM] | 8 |
| Colistin [CST] | 0.25 |
| Gentamycin | 2 |
| Imipenem/Cilastatin [IPM] | < 0.12 |
| Penicillin | > 16 |

same assay, conditions: E. coli strain Clinical Sample 6; unit assumed

| Molecule | MIC (CLSI Ref) [µg/mL] |
| --- | --- |
| CN(C)[C@@H]1C(=O)C(C(N)=O)=C(O)[C@@]2(O)C(=O)C3=C(O)c4c(O)cccc4[C@@](C)(O)[C@H]3C[C@@H]12 [TET, Tetracycline] | 2 (≈ 4.5 µM) |
| NC[C@H]1O[C@H](O[C@H]2[C@H](O)[C@@H](O[C@H]3O[C@H](CO)[C@@H](O)[C@H](N)[C@H]3O)[C@H](N)C[C@@H]2N)[C@H](N)C[C@@H]1O [TOB, Tobramycin] | 1 (≈ 2.14 µM) |
| Ampicillin/sulbactam [SAM] | 2 |
| Colistin [CST] | 0.12 |
| Gentamycin | 0.5 |
| Imipenem/Cilastatin [IPM] | < 0.12 |
| Penicillin | 16 |

same assay, conditions: E. coli strain Clinical Sample 7; unit assumed

| Molecule | MIC (CLSI Ref) [µg/mL] |
| --- | --- |
| CN(C)[C@@H]1C(=O)C(C(N)=O)=C(O)[C@@]2(O)C(=O)C3=C(O)c4c(O)cccc4[C@@](C)(O)[C@H]3C[C@@H]12 [TET, Tetracycline] | 4 (≈ 9 µM) |
| NC[C@H]1O[C@H](O[C@H]2[C@H](O)[C@@H](O[C@H]3O[C@H](CO)[C@@H](O)[C@H](N)[C@H]3O)[C@H](N)C[C@@H]2N)[C@H](N)C[C@@H]1O [TOB, Tobramycin] | 1 (≈ 2.14 µM) |
| Ampicillin/sulbactam [SAM] | 16 |
| Colistin [CST] | 0.12 |
| Gentamycin | 0.5 |
| Imipenem/Cilastatin [IPM] | < 0.12 |
| Penicillin | > 16 |

same assay, conditions: E. coli strain Clinical Sample 8; unit assumed

| Molecule | MIC (CLSI Ref) [µg/mL] |
| --- | --- |
| CN(C)[C@@H]1C(=O)C(C(N)=O)=C(O)[C@@]2(O)C(=O)C3=C(O)c4c(O)cccc4[C@@](C)(O)[C@H]3C[C@@H]12 [TET, Tetracycline] | 8 (≈ 18 µM) |
| NC[C@H]1O[C@H](O[C@H]2[C@H](O)[C@@H](O[C@H]3O[C@H](CO)[C@@H](O)[C@H](N)[C@H]3O)[C@H](N)C[C@@H]2N)[C@H](N)C[C@@H]1O [TOB, Tobramycin] | 2 (≈ 4.28 µM) |
| Ampicillin/sulbactam [SAM] | 64 |
| Colistin [CST] | 0.12 |
| Gentamycin | 1 |
| Imipenem/Cilastatin [IPM] | 0.5 |
| Penicillin | > 16 |

same assay, conditions: E. coli strain Clinical Sample 9; unit assumed

| Molecule | MIC (CLSI Ref) [µg/mL] |
| --- | --- |
| CN(C)[C@@H]1C(=O)C(C(N)=O)=C(O)[C@@]2(O)C(=O)C3=C(O)c4c(O)cccc4[C@@](C)(O)[C@H]3C[C@@H]12 [TET, Tetracycline] | 4 (≈ 9 µM) |
| NC[C@H]1O[C@H](O[C@H]2[C@H](O)[C@@H](O[C@H]3O[C@H](CO)[C@@H](O)[C@H](N)[C@H]3O)[C@H](N)C[C@@H]2N)[C@H](N)C[C@@H]1O [TOB, Tobramycin] | 4 (≈ 8.56 µM) |
| Ampicillin/sulbactam [SAM] | 32 |
| Colistin [CST] | 0.5 |
| Gentamycin | 1 |
| Imipenem/Cilastatin [IPM] | < 0.12 |
| Penicillin | > 16 |

same assay, conditions: E. coli strain Clinical Sample 10; unit assumed

| Molecule | MIC (CLSI Ref) [µg/mL] |
| --- | --- |
| CN(C)[C@@H]1C(=O)C(C(N)=O)=C(O)[C@@]2(O)C(=O)C3=C(O)c4c(O)cccc4[C@@](C)(O)[C@H]3C[C@@H]12 [TET, Tetracycline] | 4 (≈ 9 µM) |
| NC[C@H]1O[C@H](O[C@H]2[C@H](O)[C@@H](O[C@H]3O[C@H](CO)[C@@H](O)[C@H](N)[C@H]3O)[C@H](N)C[C@@H]2N)[C@H](N)C[C@@H]1O [TOB, Tobramycin] | 16 (≈ 34.2 µM) |
| Ampicillin/sulbactam [SAM] | 16 |
| Colistin [CST] | 0.25 |
| Gentamycin | > 16 |
| Imipenem/Cilastatin [IPM] | < 0.12 |
| Penicillin | > 16 |

same assay, conditions: E. coli strain Clinical Sample 11; unit assumed

| Molecule | MIC (CLSI Ref) [µg/mL] |
| --- | --- |
| CN(C)[C@@H]1C(=O)C(C(N)=O)=C(O)[C@@]2(O)C(=O)C3=C(O)c4c(O)cccc4[C@@](C)(O)[C@H]3C[C@@H]12 [TET, Tetracycline] | 4 (≈ 9 µM) |
| NC[C@H]1O[C@H](O[C@H]2[C@H](O)[C@@H](O[C@H]3O[C@H](CO)[C@@H](O)[C@H](N)[C@H]3O)[C@H](N)C[C@@H]2N)[C@H](N)C[C@@H]1O [TOB, Tobramycin] | 1 (≈ 2.14 µM) |
| Ampicillin/sulbactam [SAM] | 4 |
| Colistin [CST] | 0.5 |
| Gentamycin | 2 |
| Imipenem/Cilastatin [IPM] | 0.25 |
| Penicillin | > 16 |

same assay, conditions: E. coli strain Clinical Sample 12; unit assumed

| Molecule | MIC (CLSI Ref) [µg/mL] |
| --- | --- |
| CN(C)[C@@H]1C(=O)C(C(N)=O)=C(O)[C@@]2(O)C(=O)C3=C(O)c4c(O)cccc4[C@@](C)(O)[C@H]3C[C@@H]12 [TET, Tetracycline] | 4 (≈ 9 µM) |
| NC[C@H]1O[C@H](O[C@H]2[C@H](O)[C@@H](O[C@H]3O[C@H](CO)[C@@H](O)[C@H](N)[C@H]3O)[C@H](N)C[C@@H]2N)[C@H](N)C[C@@H]1O [TOB, Tobramycin] | 1 (≈ 2.14 µM) |
| Ampicillin/sulbactam [SAM] | 2 |
| Colistin [CST] | 0.25 |
| Gentamycin | 1 |
| Imipenem/Cilastatin [IPM] | < 0.12 |
| Penicillin | > 16 |

same assay, conditions: E. coli strain Clinical Sample 13; unit assumed

| Molecule | MIC (CLSI Ref) [µg/mL] |
| --- | --- |
| CN(C)[C@@H]1C(=O)C(C(N)=O)=C(O)[C@@]2(O)C(=O)C3=C(O)c4c(O)cccc4[C@@](C)(O)[C@H]3C[C@@H]12 [TET, Tetracycline] | 4 (≈ 9 µM) |
| NC[C@H]1O[C@H](O[C@H]2[C@H](O)[C@@H](O[C@H]3O[C@H](CO)[C@@H](O)[C@H](N)[C@H]3O)[C@H](N)C[C@@H]2N)[C@H](N)C[C@@H]1O [TOB, Tobramycin] | 1 (≈ 2.14 µM) |
| Ampicillin/sulbactam [SAM] | > 32 |
| Colistin [CST] | 0.25 |
| Gentamycin | 1 |
| Imipenem/Cilastatin [IPM] | < 0.12 |
| Penicillin | 16 |
